target: T1, PDE5A1 (Homo sapiens, UniProt O76074); assay: Inhibition of type 5 phosphodiesterase (PDE5) activity, modified SPA test with human platelet lysate; assay type: biochemical; details: 0.5 μM cGMP, read-out: PDE5A1 inhibitory values [measured as −log IC50 (mol/l)] (converted)
T1 construct: from tissue; host or cells: human platelets from fresh donor blood (10,000 x g supernatant of sonicated lysate)
Outline: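 Enzyme source is lysate from human platelets (10,000 g supernatant). Compound preincubated 5 min at 37° C in Tris pH 7.4 containing 1 μM motapizone and 10 nM of a PDE2 inhibitor. Reaction started with 0.5 μM cGMP ([3H] tracer) and run 15 min; SPA read-out, IC50 by non-linear regression.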

SMILES	IC50 [nM]
COc1cc(-c2ncnc3c(C(=O)N[C@H]4CC[C@@H](NC(=O)CO)CC4)c(C)[nH]c23)c(OCC2CC2)cc1F [Example F69, 4-[2-(Cyclopropylmethoxy)-4-fluoro-5-methoxyphenyl]-N-[cis-4-(glycoloylamino)cyclohexyl]-6-methyl-5H-pyrrolo[3,2-d]pyrimidine-7-carboxamide]	< 1
COc1cc(-c2ncnc3c(C(=O)N[C@@H]4CCN(C(=O)CO)C4)c(C)[nH]c23)c(OCC2CC2)cc1F [Example F111, 4-[2-(Cyclopropylmethoxy)-4-fluoro-5-methoxyphenyl]-N-[(3R)-1-glycoloylpyrrolidin-3-yl]-6-methyl-5H-pyrrolo[3,2-d]pyrimidine-7-carboxamide]	< 1
COc1ccc(-c2ncnc3c(C(=O)NC4CCN(C(=O)[C@H](C)O)CC4)c(C)[nH]c23)c(OCC2CC2)c1 [Example F35, 4-[2-(Cyclopropylmethoxy)-4-methoxyphenyl]-N-{1-[(2S)-2-hydroxypropanoyl]piperidin-4-yl}-6-methyl-5H-pyrrolo[3,2-d]pyrimidine-7-carboxamide]	< 1
COc1ccc(OCC2CC2)c(-c2ncnc3c(C(=O)N[C@@H]4CCN(C(=O)CO)C[C@H]4O)c(C)[nH]c23)c1 (relative stereo) [Example F49, 4-[2-(Cyclopropylmethoxy)-5-methoxyphenyl]-N-[(3R*,4R*)-3-hydroxy-1-(hydroxyacetyl)piperidin-4-yl]-6-methyl-5H-pyrrolo[3,2-d]pyrimidine-7-carboxamide]	< 1
Cc1[nH]c2c(-c3c(OCC4CC4)ccc4c3OCO4)ncnc2c1C(=O)N[C@@H]1CCN(C(=O)[C@H](C)O)C1 [Example F8, 4-[5-(Cyclopropylmethoxy)-1,3-benzodioxol-4-yl]-N-{(3R)-1-[(2S)-2-hydroxypropanoyl]pyrrolidin-3-yl}-6-methyl-5H-pyrrolo[3,2-d]pyrimidine-7-carboxamide]	< 1
COCC(=O)N[C@H]1CC[C@H](NC(=O)c2c(C)[nH]c3c(-c4cc(C)c(F)cc4OCC4CC4)ncnc23)CC1 [Example E124, 4-[2-(Cyclopropylmethoxy)-4-fluoro-5-methylphenyl]-N-{trans-4-[(methoxyacetyl)amino]cyclohexyl}-6-methyl-5H-pyrrolo[3,2-d]pyrimidine-7-carboxamide]	< 1
COc1cc(OCC2CC2)c(-c2ncnc3c(C(=O)N[C@H]4CC[C@H](NC(=O)[C@H](C)O)CC4)c(C)[nH]c23)cc1F [Example F86, 4-[2-(Cyclopropylmethoxy)-5-fluoro-4-methoxyphenyl]-N-(trans-4-{[(25)-2-hydroxypropanoyl]amino}cyclohexyl)-6-methyl-5H-pyrrolo[3,2-d]pyrimidine-7-carboxamide]	< 1
CCC(=O)N1CC[C@@H](NC(=O)c2c(C)[nH]c3c(-c4cc(F)ccc4OCC4CC4)ncnc23)C1 [Example E47, 4-[2-(Cyclopropylmethoxy)-5-fluorophenyl]-6-methyl-N-[(3R)-1-propanoylpyrrolidin-3-yl]-5H-pyrrolo[3,2-d]pyrimidine-7-carboxamide]	1 to 10
CCOc1ccc(F)cc1-c1ncnc2c(C(=O)NC3CCN(C(=O)CC)CC3)c(C)[nH]c12 [Example E53, 4-(2-Ethoxy-5-fluorophenyl)-6-methyl-N-(1-propanoylpiperidin-4-yl)-5H-pyrrolo[3,2-d]pyrimidine-7-carboxamide]	1 to 10
COc1cc(-c2nc(C)nc3c(C(=O)NC4CCN(C(=O)[C@H](C)O)CC4)c(C)[nH]c23)c(OCC2CC2)cc1F [Example F110, 4-[2-(Cyclopropylmethoxy)-4-fluoro-5-methoxyphenyl]-N-{1-[(2S)-2-hydroxypropanoyl]piperidin-4-yl}-2,6-dimethyl-5H-pyrrolo[3,2-d]pyrimidine-7-carboxamide]	< 1
COc1ccc(-c2ncnc3c(C(=O)N[C@@H]4CCN(C(=O)CO)C4)c(C)[nH]c23)c(OCC2CC2)c1 [Example F37, 4-[2-(Cyclopropylmethoxy)-4-methoxyphenyl]-N-[(3R)-1-glycoloylpyrrolidin-3-yl]-6-methyl-5H-pyrrolo[3,2-d]pyrimidine-7-carboxamide]	< 1
